In patent publication US11634452B2, “Compounds for treating neurodegenerative disorders” (ETHNODYNE, priority 2017, dated 2023):
Where “and” joins values, the source holds several entries; their conditions need not be identical. Equal entries are not always repeated.

Assays:
Format in all cases: cell-based
[1] = system: primary rat dopaminergic neurons (TH positive neurons) injured with 6-OHDA; experiment: Neuroprotective effect following exposure to 6-OHDA, with or without pathway inhibitors; conditions: 6-OHDA 20 μM, 48 h, no compound
Description: This study investigated the mode of action of CR777 on rat primary mesencephalic cultures following exposure to 6-OHDA. The effect of CR777 on level of GDNF and BDNF mRNA was investigated after 24 h 6-OHDA incubation and CR777. The main pathways of survival, regulation of the apoptosis and neuronal growth were investigated in presence of CR777 and inhibitors of these different pathways. The following pathways were investigated using antagonists of different proteins of interest: • RAS (small GTPase)/RAF (proto-oncogene Serine/threonine kinase); • Peroxisome proliferator-activated receptor gamma (PPAR-γ) (nuclear receptor) • The Pi3K/AKT/mTor (cell signaling pathway that plays a key role in cellular homeostasis through its role in regulation of apoptosis, cell growth, cell cycle). • NO (nitric oxide) pathway
Rat dopaminergic neurons were cultured as described in Example 4.
On day 6 of culture, the medium was removed and fresh medium was added, without or with 6-OHDA (Sigma, Batch: 083M4624V) at 20 μM diluted in control medium and let for 48 h. In parallel, all inhibitors were solved in culture medium and were added 2 h before the 6-OHDA application (namely 1 h before test compounds application).
CR777 was solved in DMSO at 10 mM, diluted in culture medium and then pre-incubated with mesencephalic neurons 1 hour before the 6-OHDA application (48 h). 6 wells per condition were assessed.
For survival and α-syn aggregation, compound was tested on 1 culture in a 96 well-plate (6 wells per condition), was pre-incubated 1 hour before 6-OHDA and let for 48 hours.
The following conditions were assessed: • Control (culture medium) • +6-OHDA (20 μM, 48 h) • +6-OHDA (20 μM, 48 h)+CR777 1 μM • +6-OHDA (20 μM, 48 h)+CR777 100 nM • +6-OHDA (20 μM, 48 h)+CR777 10 nM • +6-OHDA (20 μM, 48 h)+CR777 1 nM
For pathway investigation, the compound was tested on one primary dopaminergic culture in 96 well plates (6 wells per conditions).
Inhibitors were pre-incubated for 2 hours before 6-OHDA application and CR777 was pre-incubated 1 hour before 6-OHDA application.
The antagonists/inhibitors used in the experiments are the following: • FTS: farnesylthiosalicylic acid selectively disrupts the association of chronically active Ras proteins with the plasma membrane. • BEZ-235: dual PI3K/mTOR inhibitor. • T0070907: selective PPAR-γ antagonist • L-NAME (Nitro-L-arginine methyl ester): precursor to NOS inhibitor, L-NNA—requires bioactivation to become a fully functional inhibitor. • ABT-199: selective inhibitor of Bcl-2.
48 hours after intoxication, the cell culture supernatant was taken off and the dopaminergic neurons were fixed by a solution of 4% paraformaldehyde in PBS, pH=7.3 for 20 min at room temperature.
After permeabilization with 0.1% of saponin, cells were incubated for 2 hours with:
monoclonal Anti-Tyrosine Hydroxylase (TH) antibody produced in mouse at dilution of 1/10000 in PBS containing 1% FCS, 0.1% saponin,
polyclonal anti-α-syn antibody produced in rabbit at dilution of 1/200 for 2 h at room temperature.
For each condition, 20 pictures/well (representative of ˜the all well area) were automatically taken using ImageXpress (Molecular Devices) with 10× magnification. All images were taken with the same conditions. Analysis were automatically performed by using Custom Module Editor (Molecular Devices).
The following endpoint was investigated for each culture well: • The total dopaminergic neuron survival (TH staining), • The total area of α-syn on TH positive neuron (overlapping α-syn/TH)
After permeabilization with 0.1% of saponin, cells were incubated for 2 hours with monoclonal Anti-Tyrosine Hydroxylase (TH) antibody produced in mouse at dilution of 1/10000 in PBS containing 1% FCS, 0.1% saponin, for 2 h at room temperature.
The total dopaminergic neuron survival (TH staining) was investigated for each culture well.

[2] = system: primary rat motor neurons injured with glutamate; experiment: Primary motor neuron culture survival after glutamate exposure (in vitro ALS model); conditions: glutamate 5 μM for 20 min, no compound
Description: The aim of this study was to study the effect of CR777 on primary motor neuron culture from rat spinal cord (SC) injured by glutamate exposure (a well validated in vitro ALS model and model of motor neuron diseases).
Rat SC motor neurons were cultured as described by Martinou et al., Neuron. 1992 April; 8(4):737-44 and Wang et al., Hum Mol Genet. 2013 Dec. 1; 22(23):4706-19. Briefly, pregnant female rats (Wistar, Janvier labs) of 14 days gestation were killed by cervical dislocation. […] Cells were then centrifuged at 180 g for 10 min at +4° C. on a layer of BSA (3.5%) in L15 medium. […] The medium was changed every day.
The following conditions were assessed: • Control • + glutamate (5 μM 20 mn then 48 h) • + glutamate (5 μM 20 mn then 48 h)+CR777 1 pmol/L • + glutamate (5 μM 20 mn then 48 h)+CR777 10 pmol/L • + glutamate (5 μM 20 mn then 48 h)+CR777 100 pmol/L • + glutamate (5 μM 20 mn then 48 h)+CR777 1 nmol/L • + glutamate (5 μM 20 mn then 48 h)+CR777 10 nmol/L • + glutamate (5 μM 20 mn then 48 h)+CR777 100 nmol/L • + glutamate (5 μM 20 mn then 48 h)+CR777 1 μmol/L • + glutamate (5 μM 20 mn then 48 h)+CR777 10 μmol/L […]
For each condition, 6 wells were assessed, 30 pictures per well were taken using ImageXpress (Molecular Devices) with 20× magnification, to assess motor neuron survival (MAP-2). […]

[3] = system: primary rat cortical neurons injured with glutamate; experiment: Effect in rat primary cortical neurons after glutamate injury; conditions: glutamate 40 μM, 20 min, no compound
Description: A., et al., 1999. J Neurosci 19: 2455-2463 and Callizot.
The medium was changed every 2 days. The cortical neurons were intoxicated with glutamate solution.
The following conditions were assessed: • Control (culture medium) • + glutamate (40 μM, 20 min) • + glutamate (40 μM, 20 min)+CR777 (at each concentration)

[4] = system: primary rat dopaminergic neurons (TH positive neurons) injured with MPP+; experiment: Neuroprotective effect following exposure to MPP+; conditions: MPP+ 4 μM, 48 h, no compound
Description: This study investigated the neuroprotective effect of the Compound CR777 of example 1 on rat primary mesencephalic cultures following exposure to 1-methyl-4-phenyl pyridinium (MPP^+).
Rat dopaminergic neurons were cultured as described by Visanji et al., 2008 FASEB J. 2008; 22(7):2488-97. Briefly, the midbrains obtained from 15-day old rat embryos (Janvier Labs, France) were dissected under a microscope. The embryonic midbrains were removed and placed in ice-cold medium of Leibovitz (L15, Batch 4290114, Pan Biotech, Germany) containing 2% of Penicillin-Streptomycin (PS, Batch 1451013, Pan Biotech) and 1% of bovine serum albumin (BSA, Batch K030913, Pan Biotech). The ventral portion of the mesencephalic flexure, a region of the developing brain rich in dopaminergic neurons, was used for the cell preparations.
The midbrains were dissociated by trypsinisation for 20 min at 37° C. […] The cells were seeded in supplemented neurobasal medium at a density of 40 000 cells/well in 96 well-plates pre-coated with poly-L-lysine (Batch 3102256, Corning Biocoat) and maintained in a humidified incubator at 37° C. in 5% CO2/95% air atmosphere. Half of the medium was changed every 2 days with fresh medium.
On day 6 of culture, the medium was removed and fresh medium was added, without or with MPP+ at 4 μM diluted in control medium and let for 48 h. […]
The following conditions were assessed: (6 wells per condition) • Control (vehicle) • Compound CR777 of example 1 (1 pmol/L) • Compound CR777 of example 1 (10 pmol/L) • Compound CR777 of example 1 (100 pmol/L) • Compound CR777 of example 1 (1 nmol/L) • Compound CR777 of example 1 (10 nmol/L) • Compound CR777 of example 1 (100 nmol/L) • Compound CR777 of example 1 (1 μmol/L) • Compound CR777 of example 1 (10 μmol/L) […]
Data were expressed in percentage of control conditions (no injury, no compound=100%). All values were expressed as mean+/−SEM (standard error mean) of the 6 wells with statistical analyses on the different conditions (ANOVA followed by Dunnett's test when allowed, using GraphPad Prism software).

[5] = system: primary rat cortical neurons injured with Aβ1-42; experiment: Neuroprotective effect on an in vitro model of Alzheimer disease; conditions: Aβ1-42 20 μM, 24 h, no compound
Description: These peptides contribute to cerebrovascular lesions and are neurotoxic. This study investigated the neuroprotective effect of the plant extract of the invention on rat primary cortical cultures following exposure to Aβ1-42 in an in vitro AD model (Callizot. N., et al., 2013).
Rat cortical neurons were cultured as described in Example 6.
The cortical neurons were intoxicated with amyloid beta peptides solutions after 11 days of culture in presence of tested compound CR777.
Briefly, Aβ1-42 peptide (Batch: APN09080-1-1, Abcam, United Kingdom) was dissolved in the defined culture medium B27 mentioned above, devoid of serum, at an initial concentration of 40 μmol/L. This solution was gently agitated for 3 days at 37° C. in the dark and immediately used after being properly diluted in culture medium to the concentrations used (20 μM corresponding to 2 μM of AβO, measuring by WB, for survival, neurite network, tau phosphor and caspase 3 activation and 2.5 μM corresponding to 0.25 μM of AβO, for synapses evaluation).
CR777 was solved in DMSO at 10 mM and diluted in culture medium at different concentrations (see table below). The compound was tested on one primary cortical culture in 96 well plates (6 wells per conditions), and was pre-incubated 1 hour before Aβ1-42 application for 24 hours.
24 hours after intoxication, the cell culture supernatant was taken off and the cortical neurons were fixed by a cold solution of ethanol (95%) and acetic acid (5%) for 5 min at −20° C. • Plate 1: Immunostainning (MAP-2/Tau Phosphor)
After permeabilization with 0.1% of saponin, cells were incubated for 2 hours with a) a mouse monoclonal antibody anti phosphoT at dilution of 1/400 in PBS containing 1% fetal calf serum and 0.1% of saponin and b) a chicken polyclonal antibody anti microtubule-associated-protein 2 (MAP-2) at dilution of 1/1000 in PBS containing 1% fetal calf serum and 0.1% of saponin (this antibody stains specifically cell bodies and neurites, allowing study of neuronal cell survival and neurite network).
For each condition, 30 pictures/well (representative of ˜the all well area) were taken automatically using ImageXpress (Molecular Devices) with 20× magnification. All images were taken with the same conditions. Analysis were performed automatically by using Custom Module Editor (Molecular Devices).
The following endpoints were investigated per culture well: • The total neuron survival (MAP-2 staining), • The neurite network (MAP-2 staining) and • hyperphophorylation of T protein (pT) into neurons (pT/MAP-2). • Plate 2: Immunostainning (MAP-2/Caspase 3)
For each condition, 30 pictures/well (representative of ˜the all well area) were taken automatically using ImageXpress (Molecular Devices) with 20× magnification. All images were taken with the same conditions. Analysis were performed automatically by using Custom Module Editor (Molecular Devices). • The total number of caspase 3 positive neuron (overlapping caspase3/MAP-2) were investigated per culture well:
Data is expressed in percentage of control conditions (no injury, no compound=100%). All values are expressed as mean+/−SEM (standard error of the mean) from 6 wells per condition per culture. Neuro-Sys performed graphs and statistical analyses on the different conditions (ANOVA followed by Dunnett's test when allowed, using GraphPad Prism software version 5.0).

Question: What does the source list for `NCCc1cc(O)c(O)cc1O` [Compound 6-OHDA, reference compound]?
Answer: TH positive neuronal death induced by the toxin [1]: ~30%; loss of the neurite network induced by the toxin [1]: ~35% and ~40%; α-syn aggregation inside TH neuron cytoplasm induced by the toxin [1]: large and significant α-syn aggregation

Question: What does the source list for `N[C@@H](CCC(=O)O)C(=O)O` [Glutamate, glutamate, reference compound]?
Answer: motor neuron death induced by glutamate [2]: > 30%; neurite network loss induced by glutamate [3]: neurite network loss; neuronal death induced by glutamate [3]: significant neuronal death

Question: Which “TH positive neuron cell death induced by the toxin” value [4] does the source give for `C[n+]1ccc(-c2ccccc2)cc1` [MPP+, 1-methyl-4-phenyl pyridinium, reference compound] here?
Answer: > 35%

Question: Which results are given for “Amyloid beta peptide 1-42 [Aβ, reference compound]”?
Answer: caspase 3 activation induced by Aβ [5]: activation of caspase 3; hyperphosphorylation of tau induced by Aβ [5]: increase of the hyperphosphorylation of tau; neurite network loss induced by Aβ [5]: ~40%
